Experimental data: PMC12992715, “Dual interference with host neuropeptide signaling allows parasitoid wasp to hijack host sugar metabolism” (The EMBO Journal, 2025)
No end group written: not given here.

Legend:
PxsNPFR = assay: qPCR of PxHK / PxGP upon synthetic sNPF with dsPxsNPFR treatment; format: in vivo, Plutella xylostella; settings: non-parasitised larvae, 3L, 0.5 ng sPxsNPF-1 + dsPxsNPFR; n = 6-7; words
From the text: (§1) To analyse gene expression in different tissues, P. xylostella larvae were dissected under the microscope, followed by the collection of the silk gland, fat body, midgut, haemocytes and central nervous system (CNS, brain and ventral nerve cord). Haemocytes were collected on clean Parafilm membranes with capillaries by bleeding the larvae from a cut proleg. To explore gene expression at different instars of parasitised or non-parasitised larvae, non-parasitised larva was isolated individually using RNA-easy Isolation Reagent (Vazyme). Parasitoid larvae were removed before parasitised hosts were isolated. As for the measurement of other experiments, per larva with different treatments was isolated individually using RNA-easy Isolation Reagent according to the manufacturer’s instructions.
The quality and concentrations of total RNAs were estimated by electrophoresis and NanoDrop 2000 spectrophotometer (Thermo Fisher Scientific). […] Relative gene expression levels were calculated using the 2^−ΔΔCt method. […]
DNA fragments of ∼500 bp in size were amplified by PCR. […] Synthetic dsRNA was confirmed by an agarose gel, and the concentration was determined by NanoDrop2000 spectrophotometer (Thermo Scientific). About 500 ng of dsRNA was injected into P. xylostella larvae 72 h post-parasitisation, and the RNAi efficiency was detected 48 h post-injection by qPCR. […]

[1] = system: PxGP, PxHK and PxTPS mRNA; assay: qPCR of PxGP, PxHK, PxTPS in larvae injected with synthetic sNPF, venom, CvBV or teratocytes; format: in vivo, Plutella xylostella; settings: 0.5 ng synthetic peptide, larvae whole body, 4L; n = 7-8; words
From the text: as §1
The quality and concentrations of total RNAs were estimated by electrophoresis and NanoDrop 2000 spectrophotometer (Thermo Fisher Scientific). First-strand cDNAs were synthesised using the ReverTra Ace qPCR RT kit (Toyobo) according to the manufacturer’s instructions. Both β-actin (GenBank Acc. No.: AB282645) and β-tubulin (GenBank Acc. No.: EU127912) of P. xylostella were used as internal controls. Primer sequences used for qPCR analysis are shown in Appendix Table S4. qPCR was performed by using THUNDERBIRD® SYBR qPCR Mix (Toyobo) on the CFX Connect real-time system (Bio-Rad). All qPCR assays were performed using four internal replicates and at least three biological replicates under the following conditions: 95 °C for 60 s and 40 cycles of 95 °C for 15 s and 60 °C for 30 s. Relative gene expression levels were calculated using the 2^−ΔΔCt method.
Microinjections were performed under a Stemi 2000C microscope (Zeiss) using glass capillary injection needles and an Eppendorf Femtojet (Eppendorf) with a microcontroller (Narishige). To confirm the function of bovine insulin on hosts, 1 μg bovine insulin (Sigma-Aldrich, I0305000) was injected into the middle 3rd instar P. xylostella larvae. To identify the effect of each parasitic factor on hosts, 0.05 FE CvBV or 0.05 VRE venom was injected into the abdomen of the middle 3rd instar P. xylostella larva (Wang et al, [2018]; Yu et al, [2007]). 1 TE teratocytes’ content was microinjected into the early 4th instar P. xylostella larvae. To confirm the function of each synthetic sNPF peptide, 0.005 ng, 0.05 ng, or 0.5 ng of each peptide was injected into the middle 3rd instar P. xylostella larvae in a volume of 0.1 μl/per larva once per day for 3 consecutive days.

PxHK mRNA in the midgut = assay: Ex vivo midgut incubation with sNPF and signalling inhibitors, PxHK mRNA; format: cell-based, Plutella xylostella; settings: Fig 6F
Experimental: The in vitro incubations of fat body or midgut were performed as previously described with minor modifications (Cheng et al, [2022]). The fat bodies and midguts from non-parasitised middle 4th instar P. xylostella larvae were collected in 0.5 mL of PBS. The collected tissues were then preincubated in culture dishes containing TNM-FH medium (HyClone) for 30 min. sNPF peptides or inhibitors were administered to isolated fat body and midgut in vitro using a modified method from a previous study (Oh et al, [2019]). 1 mM stock solution of pertussis toxin (PTX, Tocris Bioscience) or U73122 (MedChemExpress) was dissolved in DMSO (Sigma-Aldrich) and kept at −80 °C. 0.1 ng/µl PTX or 10 µM U73122 were then mixed with 20 µM sNPF-contained TNM-FH medium. Preincubated tissues were incubated in these mixtures at 25 °C for 1 h, followed by total RNA isolation and qPCR.

SVRSPSRRLRF-NH2 [sPxsNPF-1, synthetic short neuropeptide F-1 of Plutella xylostella]
sNPF-induced PxHK expression after PxsNPFR knockdown (PxsNPFR): abolished following dsPxsNPFR treatment
PxGP mRNA expression [1]: remained unaffected
PxHK mRNA expression [1]: upregulated
PxTPS mRNA expression [1]: remained unaffected
PxHK relative expression (PxHK mRNA in the midgut; sPxsNPF-1+PTX, Average of 5 replicates, SD 0.30, control DMSO average 1.00): 1.96
PxHK relative expression (PxHK mRNA in the midgut; sPxsNPF-1+PTX, replicate 1): 2.33
PxHK relative expression (PxHK mRNA in the midgut; sPxsNPF-1+PTX, replicate 2): 1.83
PxHK relative expression (PxHK mRNA in the midgut; sPxsNPF-1+PTX, replicate 3): 1.61
PxHK relative expression (PxHK mRNA in the midgut; sPxsNPF-1+PTX, replicate 4): 1.83
PxHK relative expression (PxHK mRNA in the midgut; sPxsNPF-1+PTX, replicate 5): 2.18
PxHK relative expression (PxHK mRNA in the midgut; sPxsNPF-1+U73122, Average of 5 replicates, SD 0.13, control DMSO average 1.00): 0.98
PxHK relative expression (PxHK mRNA in the midgut; sPxsNPF-1+U73122, replicate 1): 1.03
PxHK relative expression (PxHK mRNA in the midgut; sPxsNPF-1+U73122, replicate 2): 0.92
PxHK relative expression (PxHK mRNA in the midgut; sPxsNPF-1+U73122, replicate 3): 1.06
PxHK relative expression (PxHK mRNA in the midgut; sPxsNPF-1+U73122, replicate 4): 0.79
PxHK relative expression (PxHK mRNA in the midgut; sPxsNPF-1+U73122, replicate 5): 1.11
PxHK relative expression (PxHK mRNA in the midgut; sPxsNPF-1 without inhibitor, Average of 5 replicates, SD 0.18, control DMSO average 1.00): 1.73
PxHK relative expression (PxHK mRNA in the midgut; sPxsNPF-1 without inhibitor, replicate 1): 1.68
PxHK relative expression (PxHK mRNA in the midgut; sPxsNPF-1 without inhibitor, replicate 2): 1.93
PxHK relative expression (PxHK mRNA in the midgut; sPxsNPF-1 without inhibitor, replicate 3): 1.52
PxHK relative expression (PxHK mRNA in the midgut; sPxsNPF-1 without inhibitor, replicate 4): 1.60
PxHK relative expression (PxHK mRNA in the midgut; sPxsNPF-1 without inhibitor, replicate 5): 1.89
